Here are results for 8 molecules from ChEMBL document CHEMBL5528020, “Small molecular CD73 inhibitors: Recent progress and future perspectives” (Eur J Med Chem, 2024).

For this assay, the target named is 5'-nucleotidase (Homo sapiens, UniProt P21589). The assay can be described thus: Inhibition of human recombinant Ecto-5'-nucleotidase.
Chain of 5'-nucleotidase (P21589 whole entry): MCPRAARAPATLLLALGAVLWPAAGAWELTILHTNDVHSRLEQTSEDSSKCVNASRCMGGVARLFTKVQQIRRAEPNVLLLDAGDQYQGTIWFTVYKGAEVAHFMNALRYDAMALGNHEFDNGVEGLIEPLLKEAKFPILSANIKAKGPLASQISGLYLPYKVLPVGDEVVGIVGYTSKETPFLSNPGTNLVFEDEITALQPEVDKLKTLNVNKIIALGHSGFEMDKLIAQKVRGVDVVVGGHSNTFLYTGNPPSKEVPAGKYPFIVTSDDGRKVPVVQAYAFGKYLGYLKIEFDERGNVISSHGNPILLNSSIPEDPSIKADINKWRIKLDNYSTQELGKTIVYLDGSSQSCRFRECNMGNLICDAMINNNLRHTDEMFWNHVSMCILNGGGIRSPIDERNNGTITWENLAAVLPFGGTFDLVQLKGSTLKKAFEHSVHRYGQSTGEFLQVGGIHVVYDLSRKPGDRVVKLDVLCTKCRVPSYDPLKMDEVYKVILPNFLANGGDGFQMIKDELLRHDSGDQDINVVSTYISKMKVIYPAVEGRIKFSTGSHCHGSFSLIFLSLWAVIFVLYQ
As usually defined, the IC50 is the concentration needed to halve the response being measured. For `O=S(=O)(c1ccc(-n2nccc2-c2ccc3nnn(-c4ccc5cn[nH]c5c4)c3c2)cc1Br)C(F)(F)F`, the IC50 was greater than 0.1 nM.

`N#Cc1ccc(-c2ncsc2-c2cc3c(-c4ccc5cn[nH]c5c4)nnc-3co2)cc1`: the IC50 was greater than 0.1 nM.

With `O=S(=O)(c1ccc(-n2nccc2-c2ccc3nnn(-c4ccc5cn[nH]c5c4)c3c2)c(Br)c1)C(F)(F)F`, the IC50 was greater than 0.1 nM.

Turning to `O=S(=O)(c1ccc(-c2nn[nH]c2-c2cc3c(-c4cccc(O)c4)nnc-3co2)cc1Br)C(F)(F)F`, the IC50 is greater than 0.1 nM.

As to `CC1NC(n2nnc3ccc(-c4ccnn4-c4ccc(C#N)cc4)cc32)CCS1` (stereo not drawn), the IC50 is greater than 0.1 nM.

Consider `O=S(=O)(c1ccc(-c2nsnc2-c2cc3c(-c4cccc(O)c4)nnc-3co2)cc1Br)C(F)(F)F`, for which the IC50 was greater than 0.1 nM.

`N#Cc1ccc(-n2nccc2-c2ccc3nnn(-c4cccc(O)c4)c3c2)cc1`: the IC50 is greater than 0.1 nM.

`Cc1nc(-c2ccnn2-c2ccc(C#N)cc2)nc2cc(-c3ccc4cn[nH]c4c3)cnc12`: the IC50 was greater than 0.1 nM.
